Counter-ions that a name gives are not always drawn.

The term half-life denotes the time in which the quantity being followed falls by half. A lower half-life goes with fast loss.

Series [1] is described as follows: Metabolic stability in human liver microsomes. It counts as in vitro ADME. Conditions: for half-life at 0.25 μM: pH 7.4; for microsomal CLint at 0.25 μM: pH 7.4, read-out: CLint (μL/min/mg protein); for in vitro clearance compared with MDAI HCl salt (reference compound): tested as racemic mixtures. How it is done: Microsomal Assay: Human liver microsomes (20 mg/mL) were obtained. β-nicotinamide adenine dinucleotide phosphate, reduced form (NADPH), magnesium chloride (MgCl2), and dimethyl sulfoxide (DMSO) are purchased from Sigma-Aldrich.
Determination of Metabolic Stability: 7.5 mM stock solutions of test compounds of the above structural formula (e.g., of an embodiment or aspect of embodiment thereof described herein), or pharmaceutically acceptable salt thereof, are prepared in DMSO. […] The diluted microsomes are added to wells of a 96-well deep-well polypropylene plate in triplicate. […] Reactions are initiated by addition of pre-warmed NADPH solution. The final reaction volume is 0.5 mL and contains 4.0 mg/mL human liver microsomes, 0.25 μM test compound, and 2 mM NADPH in 0.1 M potassium phosphate buffer, pH 7.4, and 3 mM MgCl2. The reaction mixtures are incubated at 37° C., and […] aliquots are removed at 0, 5, 10, 20, and 30 minutes and added to shallow-well 96-well plates which contain […] of ice-cold ACN (acetonitrile) with internal standard to stop the reactions. The plates are stored at 4° C. for 20 minutes after which […] of water is added to the wells of the plate before centrifugation to pellet precipitated proteins. Supernatants are transferred to another 96-well plate and analyzed for amounts of parent remaining by LC-MS/MS using an Applied Bio-systems API 4000 mass spectrometer. The same procedure is followed for the non-labeled, such as the non-deuterated counterpart of the compound and the positive control, 7-ethoxycoumarin (1 μM). Testing is done in triplicate.
Data analysis: The in vitro T1/2s for test compounds are calculated from the slopes of the linear regression of % parent remaining (In) vs incubation time relationship.
k=−[slope of linear regression of % parent remaining (In) vs incubation time] The apparent intrinsic clearance is calculated using the following equation: […]
Data analysis is performed using Microsoft Excel Software.

A further series deals with Male Sprague-Dawley rats. Nature of the series: Rat elevated zero maze test (model of anxiety). It counts as in vivo. An excerpt: The rat zero-maze model is a refined alternative to the plus-maze, the most widely used animal model of anxiety, and consists of an elevated annular platform, divided equally into four quadrants. Two opposite quadrants are enclosed by Perspex walls on both the inner and the outer edges of the platform, while the remaining two opposite quadrants are open being enclosed only by a Perspex “lip”. Animals will show a preference for the closed areas, and avoidance of the open sections is assumed to stem from a rodent's natural aversion to open, exposed spaces. The primary index of anxiety, which reflect changes in open arm preference, is the percentage of time spent on the open areas. A reduction in the amount of activity on the open areas is considered to reflect an increase in anxiety while an increase in time in the open arms is indicative of an anxiolytic effect. Other, ethologically-based behaviors are also assessed as indices of anxiety including total open arm entries, total line crossings, and the frequency of exploratory head dipping over the edge of the platform (HDIPS). • Shepherd, J K; Grewel, SS; Fletcher, A; Bill, DJ; Dourish, C T (1994) Behavioural and pharmacological validation of the elevated “zero-maze” as an animal model of anxiety. Psychopharmacol., 116:56-64.
Male Sprague-Dawley 200-250 g (Envigo UK) rats were used. Animals were group-housed (5 per cage; cage size: 40×40×20 cm) in a temperature-controlled environment (22±2° C.), under a 12 h light-dark cycle (lights on: 08:00 hours) for one week prior to testing. Food and water were freely available. Number of animals per group=5. Animals were moved into the experimental room 16-24 hours before testing.
The elevated 0-maze comprises a black Perspex annular platform (105 cm diameter, 10 cm width) elevated to 65 cm above ground level, divided equally into four quadrants. Two opposite quadrants are enclosed by clear red Perspex walls (27 cm high) on both the inner and outer edges of the platform, while the remaining two opposite quadrants are surrounded only by a Perspex “lip” (1 cm high) which serves as a tactile guide to animals on these open areas.
Subjects were weighed and tail marked before being injected. After a specified pre-treatment time, subjects were placed in a closed quadrant and a 5-min test period were recorded on videotape for subsequent analysis. The maze was cleaned with 5% methanol/water solution and dried thoroughly between test sessions. Behavioural measures comprise percentage time spent on the open areas (% TO). Animals are scored as being in the open area when all four paws were in an open quadrant and in the closed area only when all four paws have passed over the open-closed divide. All testing were carried out between 9.00 and 16.00 hours.
IP: MDAI (HCl salt with 82.94% free base content) was formulated in Vehicle 1 (Saline) for injection to concentrations of […] to provide doses of 0.15, 0.31, 0.625, 1.25 and 2.5 mg/kg when administered ip in 5 mL/kg dosing volumes.
Chlordiazepoxide was formulated in Vehicle 1 (saline) to a concentration of 1.2 mg/mL to provide a dose of 6 mg/kg when administered ip in 5 mL/kg dosing volumes.
35 male Sprague-Dawley rats in treatment groups of 2 or 5, was intraperitoneally dosed with either Vehicle 1 (saline) or MDAI at 1 of 5 dose levels (0.15, 0.31, 0.625, 1.25 and 2.5) or chlordiazepoxide (6 mg/kg) in 5 mL/kg injection volumes. Thirty min later at T=0, rats were individually placed in a closed arm of the zero-maze and behavior assessed by a “blind” observer using remote video monitoring over the subsequent 5 min. The animal was then removed and the maze carefully wiped with 5% methanol/water solution before the next test was begun. Three rats from the vehicle group, 3 rats from the 2.5 mg/kg MDAI group, and 3 rats from the CDP group were tested on a separate day from the other rats.
Data was analysed with Statistica software (Statsoft USA version 10.0). […]

The conditions of series [2]: cited from earlier work.
The conditions of series [3]: Progress in Neuro-Psychopharmacology & Biological Psychiatry 69, 2016, 49-59; cited from earlier work.
A short description of series [4]: Double-blind, randomized, placebo-controlled clinical trial of MDAI-assisted psychotherapy in PTSD. It counts as in vivo. How it is done:
A multicenter, randomized, double-blind, placebo-controlled trial is conducted to assess the efficacy and safety of MDAI-assisted psychotherapy versus psychotherapy with placebo control in participants diagnosed with at least moderate post-traumatic stress disorder (PTSD).
This multicenter, randomized, double-blind, placebo-controlled trial is conducted at various sites in the United States with IRB approval from each study site. A flexible dose of MDAI hydrochloride salt or placebo, followed by a supplemental half-dose unless contraindicated by patient's previous response or medical history, is also administered during the Treatment Period with psychotherapy in at least 3 blinded monthly Experimental Sessions. The Supplemental Dose extends the duration of drug effects on the participants during an Experimental Session. An optional Risk Evaluation and Mitigation Strategy (REMS) Protocol may be implemented for MDAI and placebo-groups. The Treatment Period lasts for approximately 12 weeks. During the Treatment Period, each Experimental Session is followed by three Intervening Sessions of non-drug psychotherapy. Each Experimental Session involves an overnight stay. The Primary Outcome measure, the change in Clinician Administered PTSD Scale for DSM-5 (CAPS-5), is determined by a blinded Independent Rater (IR) pool multiple times throughout the study. The study consists of separate periods for each participant. Initially, prospective participants undergo a Screening Period involving an initial eligibility assessment, a medical history intake, informed consent, and enrollment of eligible participants. Next, a Preparation Period is undertaken for enrolled participants involving medication tapering and clinical baseline assessments to confirm each participant meets enrollment criteria. As part of the Preparation Period, a detailed assessment of co-morbidities to PTSD is recorded. Participants may remain on prescribed courses of selective serotonin reuptake inhibitor (SSRI) or serotonin and norepinephrine reuptake inhibitor (SNRI) treatment. Dosages and/or frequency of administration of a prescribed SSRI or SNRI may be adjusted to fit within study parameters. Participants may be required to taper a prescribed course of medication in order to maintain eligibility within the study. The Treatment Period consists of three monthly Experimental Sessions and associated Intervening Sessions of integrative behavioral psychotherapy. The Treatment Period lasts approximately 12 weeks. Following the Treatment Period is a Follow-up Period and Study Conclusion. During the Follow-up Period and Study Conclusion, participants complete 4 weeks with no study visits, followed by a Study Conclusion visit.
This study compares the effects of three blinded Experimental Sessions of psychotherapy in combination with flexible doses of MDAI or placebo administered as described below. Non-drug preparatory and intervening psychotherapy sessions are also included. Patient's weight is determined for dosage calculation. Initial dose is 100 mg unless this will result in a dosage of less than 1.5 mg/kg of patient weight. Initial dose thereby adjusted upward in 50 mg increments to deliver the lowest dose possible of at least 1.5 mg/kg of patient weight. Initial dose for Experimental Session 2 and 3 is cumulative dose calculated by adding the initial dose plus REMS protocol dose used the previous Experimental Session for each patient.
Randomization occurs prior to the initiation of Experimental Session 1. Each participant is provided the next randomized number in a sequence by a blinded study monitor. Participants are then randomized, according to a computer-generated randomization schedule, […] to MDAI or placebo. The randomization schedule is prepared and implemented by an independent statistician. Participants, clinicians, and study teams are blinded to treatment allocation. MDAI treatment groups may be subjected to anxiogenic effects due to underdosing of participants. […]

[5] abbreviates: 6 mg/kg ip, 30 min before test, vs vehicle.
The mark [6] stands for this setting: at Study Conclusion, vs placebo-treated controls.

On to `[2H]C1(N)Cc2cc3c(cc2C1([2H])[2H])OCO3` (racemic) [Compound 3, 6,7,7-Trideuterio-5H-cyclopenta[f][1,3]benzodioxol-6-amine hydrochloride], for which, in series [1], the half-life at 0.25 μM is 7.42 h, the microsomal CLint at 0.25 μM amounted to 3.12 µL/min/mg and the “in vitro clearance compared with MDAI HCl salt (reference compound)” value was “significantly lower”.

With `[2H]C1([2H])Oc2cc3c(cc2O1)C([2H])([2H])C([2H])(N)C3` (racemic) [Compound 4, 2,2,6,7,7-Pentadeuterio-5H-cyclopenta[f][1,3]benzodioxol-6-amine hydrochloride], in series [1], the half-life at 0.25 μM stood at 7.97 h, the microsomal CLint at 0.25 μM was determined as 2.9 µL/min/mg and the “in vitro clearance compared with MDAI HCl salt (reference compound)” value is recorded as “significantly lower”.

Consider `CNC1=Nc2ccc(Cl)cc2C(c2ccccc2)=[N+]([O-])C1` [CDP, Chlordiazepoxide], for which, in the series with Male Sprague-Dawley rats (setting [5]), the “frequency of HDIPS” value is given as “trend towards increased”, the “percentage of time in the open arms (% TO)” value (“percentage of time … (% TO)” for short) is reported as “significant increase”, the total line crossings entry was “trend towards increased” and the “total open arm entries” value is “trend towards increased”.

As for `[2H]C1([2H])Oc2cc3c(cc2O1)CC(N)C3` [Compound 1, 2,2-Dideuterio-6,7-dihydro-5H-cyclopenta[f][1,3]benzodioxol-6-amine Hydrochloride], in series [1], the “half-life and intrinsic clearance compared to MDAI HCl (reference compound)” value is on record as “exhibit differences”; the half-life at 0.25 μM was 3.27 h; the microsomal CLint at 0.25 μM turned out to be 7.09 µL/min/mg.

In the case of `[2H]C1([2H])Oc2cc3c(cc2O1)C([2H])([2H])C([2H])(N)C3([2H])[2H]` [Compound 2, 2,2,5,5,6,7,7-Heptadeuteriocyclopenta[f][1,3]benzodioxol-6-amine Hydrochloride], in series [1], the “half-life and intrinsic clearance compared to MDAI HCl (reference compound)” value is given as “exhibit differences”; the half-life at 0.25 μM was found to be 3.83 h; the microsomal CLint at 0.25 μM was 6.04 µL/min/mg.

Take `[2H]C1([2H])c2cc3c(cc2C([2H])([2H])C1([2H])N)OCO3` [Compound 5, 5,5,6,7,7-Pentadeuteriocyclopenta[f][1,3]benzodioxol-6-amine hydrochloride]: in series [1], the half-life at 0.25 μM worked out at 3.42 h and the microsomal CLint at 0.25 μM was 6.78 µL/min/mg.

With `NC1Cc2cc3c(cc2C1)OCO3` [MDAI, 5,6-Methylenedioxy-2-aminoindane], in series [1], the half-life at 0.25 μM turned out to be 3.42 h and the microsomal CLint at 0.25 μM was 6.78 µL/min/mg. For the same molecule, in series [2], the “Oral MDAI dose, drug activity level Threshold” value is recorded as 40 mg and the “Oral MDAI dose, drug activity level Very Strong” value is given as not below 300 mg. Moreover, the “toxicity reported associated with MDAI intoxication” value in series [3] was “serotonin syndrome”. Further, the “CAPS-5 assessments compared to placebo-treated controls” value in series [4] (Intervening Session 1C, 2C, 3C and Study Conclusion) is on record as “Significant improvements”. The “CAPS-5 assessment compared to the placebo group” value in series [4] (PTSD participants, at Study Conclusion) is given as “significant mean reduction”. For the same molecule, the “lessening daytime sleepiness as measured by ESS” value in series [4] (at Study Conclusion) was “significant improvement”. Besides, in series [4] (setting [6]), the adverse anxiogenic incidents entry is listed as “without a significant increase”, the “clinician-rated functional impairment score as measured by SDS” value is “significant improvement” and the “depression as measured by HAM-D” value is recorded as “significant improvement”. For the same molecule, the “percentage of time … (% TO)” value with Male Sprague-Dawley rats (0.625 mg/kg ip, 30 min before test, vs vehicle or any other dose (FIG. 1)) is listed as “numerical increase”. In addition, the “percentage of time … (% TO)” value in the series on Male Sprague-Dawley rats (doses too low or too high (0.15, 0.31, 1.25, 2.5 mg/kg ip)) is recorded as “opposite effect”. Moreover, the “total open arm entries” value in the series with Male Sprague-Dawley rats (higher and lower doses (0.15, 0.31, 1.25, 2.5 mg/kg ip), FIG. 2) is listed as “trended towards an anxiogenic effect”. For the same molecule, in the series on Male Sprague-Dawley rats (middle dose (0.625 mg/kg ip), FIG. 2), the “total open arm entries” value was “increase vs placebo that trended towards significance”.

Turning to `COc1ccc2c(c1)[C@]13CCCC[C@@H]1[C@H](C2)N(C)CC3` [dextromethorphan], in series [1], the half-life at 0.25 μM amounted to 0.433 h and the microsomal CLint at 0.25 μM came out at 53.5 µL/min/mg.

These data come from patent US20230181521A1, “IS[…] ANALOGS OF 5,6-METHYLENEDIOXY-2-AMINOINDANE (MDAI)” (Terran Biosciences, Inc., priority 2021, published 2023).
